Two molecules from patent publication US20250144250A1, “PH-SENSITIVE FLUOROPHORES” (The General Hospital Corporation, priority 2022, published 2025) can be followed below.

Test [1] concerns ID8 ovarian cancer tumor tissue. The test can be described thus: Histological analysis of tumor-targetability of the NIR fluorophore. Conditions: frozen sections, 4 h post-injection of 20 nmol. The format is in vivo, mice. On the procedure: Histological analysis of tumor-targetability of the NIR fluorophore: To determine the tissue distribution of the NIR fluorophore, tumors and major organs were removed from ID8 ovarian cancer-bearing mice 4 h post-injection with 20 nmol of PH08 in 100 μL of 5% wt/v BSA/saline. The dissected tissues were trimmed and embedded in Tissue-Tek optimum cutting temperature (OCT) compound (Sakura Finetek, Torrance, CA) without a pre-fixation step, and the tissue block was frozen at −80° C. Ten-μm thick frozen sections were cut by a cryostat (Leica, Germany). The slides were subject to fluorescence analysis first, then stained for hematoxylin and eosin (H&E). Fluorescence and brightfield images were acquired on the 4-channel Nikon TE2000 epifluorescence microscope. Image acquisition and analysis were performed using IPLab software (Scanalytics, Fairfax, VA). […] Exposure times were adjusted to obtain a similar maximum fluorescence value for each fluorescence image. […] In order to validate the tumor-specific fluorescence signal, frozen sections including both tumor and adjacent normal tissues harvested from tumor-bearing mice were examined by fluorescence microscopy. […] The fluorescence signal was mostly seen on the top 3-4 layers of cells in the tumor tissue, of which the signal was found predominantly in the extracellular space and cytoplasm.

Test [2] has as its system ID8 cells. Description: Inhibition assay of transporters to determine entry mechanism of PH08. The class given is cell-based, murine. Conditions: 0.2 μM PH08. On the procedure: (§1) FIG. 2 Cellular uptake of pH sensing NIR fluorophores via membrane transporters: In vitro tumor cell uptake of the pH sensing NIR probes under normoxic and hypoxic conditions. Murine cancer cell line ID8 cells were incubated at normoxic or hypoxic conditions (1% O2) for 24 h at 37° C. and then incubated for 30 min in the presence of 0.1 μM NIR probes. (a) Representative fluorescence images of cells are shown. The contrast was normalized across all images. Scale bar=100 μm. (b) Quantitative time-course measurements of the fluorescence intensity in cells. *P<0.05, **P<0.01 by two-way ANOVA followed by Tukey's multiple comparisons test (Normoxia vs. Hypoxia). Error bars show mean #s.d. […] Representative fluorescence images of cells are shown. […] (d) Quantitative measurements of the fluorescence intensity in cells. *P<0.05 by two-way ANOVA followed by Tukey's multiple comparisons test. […]
The organic anion transporting polypeptides (OATPs) is known to mediate the transmembrane uptake of small molecule drugs and include structurally related fluorophores such as the clinically approved indocyanine green (ICG) and tumor-targeting IR-780. […] Next, we determined the contribution of organic cation transporters (OCTs) and organic carnitine (zwitterion) transporters (OCTNs) on the uptake of PH08, which may play roles in the transcellular movement of small organic molecules across epithelial barriers. […]

In test [3] the test system is ID8 cells. The test can be described thus: Live-cell labeling and in vitro imaging: cellular uptake of NIR fluorophores. The class given is cell-based, murine. Particulars: fluorescence microscopy. Here is the method: as §1, with “#s.d. (c) Inhibition assay of transporters to determine the entry mechanisms in ID8 cells.” for “#s.d.”
Live-cell labeling and in vitro imaging: Murine ovarian cancer cells (ID8 cells) were obtained from Dr. Wang's lab in the Vincent Center for Reproductive Biology at Massachusetts General Hospital (MGH). […] Image acquisition and analysis were performed using IPLab software (Scanalytics, Fairfax, VA), and the fluorescent intensity of each cell was measured using ImageJ (National Institutes of Health, Bethesda, MD). […]

Structures are written as SMILES.

As to `CCN1/C(=C/C=C2\CCCC(/C=C/C3=[N+](CC)c4ccccc4C3(C)C)=C2N2CCNCC2)C(C)(C)c2ccccc21` [PH08], the “fluorescence signal in tissue sections” value in test [1] is recorded as “detected throughout the tumor tissue with no substantial fluorescence signals in neighboring muscles”. In addition, in the test on ID8 cells [2], the “cellular uptake after treatment with D22, inhibitor of OCTs and OCTNs” value is “did not induce changes in cellular uptake”; the “cellular uptake after treatment with bromsulphthalein (BSP), OATP inhibitor” value was “significant reduction in cellular uptake”. Besides, the accumulation in cells entry in the test on ID8 cells [3] is recorded as “time-dependent manner”.
`CCN1/C(=C/C=C2\CCCC(/C=C/C3=[N+](CC)c4ccccc4C3(C)C)=C2c2ccccc2)C(C)(C)c2ccccc21` [PH03, 1-Ethyl-2-((E)-2-((E)-6-(2-((E)-1-ethyl-3,3-dimethylindolin-2-ylidene)ethylidene)-3,4,5,6-tetrahydro-[1,1′-biphenyl]-2-yl)vinyl)-3,3-dimethyl-3H-indol-1-ium iodide]: in the test on ID8 cells [3], the accumulation in cells entry is on record as “time-dependent manner”.
